pIC50: −log10 of the molar value.
Molecular target: human HPK1 (MAP4K1) (Homo sapiens (Human), UniProt Q92918)
Assay: HPK1 IC50 Assay (TR-FRET peptide phosphorylation)
Format: biochemical
Conditions: 0.15 nM HPK1, 10 μM ATP, 1 μM STK S1 peptide substrate; geometric mean
How it was run: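 Readout: TR-FRET (665 nm/620 nm) after EDTA stop, detecting STK S1 peptide (1 μM) phosphorylation by 0.15 nM HPK1 kinase domain, ATP-pre-activated, at 10 μM ATP over 3 h, 25° C, pH 7.0. IC50s from four-parameter variable-slope fits, normalized to staurosporine and DMSO, averaged geometrically.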

Sequence of human HPK1 (MAP4K1) (Q92918 17-274): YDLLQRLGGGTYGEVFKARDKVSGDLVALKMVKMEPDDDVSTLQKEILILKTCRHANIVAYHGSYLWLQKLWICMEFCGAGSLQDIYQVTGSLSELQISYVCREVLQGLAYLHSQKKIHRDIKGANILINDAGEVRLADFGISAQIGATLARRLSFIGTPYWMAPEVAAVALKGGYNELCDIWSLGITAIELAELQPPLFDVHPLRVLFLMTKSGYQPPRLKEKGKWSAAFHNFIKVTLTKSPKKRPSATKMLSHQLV

pIC50 | Compound
10.15 | CCNC(=O)c1cc(Nc2nc(-c3ccc4c(c3)N([C@H]3C[C@@](C)(N5CCCCC5)C3)C(=O)C4(C)C)cc3ncn(C(C)C)c23)c(F)cc1Cl [Example 290, 2-chloro-5-((6-(3,3-dimethyl-1-((1s,3s)-3-methyl-3-(piperidin-1-yl)cyclobutyl)-2-oxoindolin-6-yl)-3-isopropyl-3H-imidazo[4,5-c]pyridin-4-yl)amino)-N-ethyl-4-fluorobenzamide]
10.00 | CC(C)n1cnc2cc(-c3cnc4c(c3)N([C@H]3C[C@@](C)(N5CCCC6(CC6)C5)C3)C(=O)C4(C)C)nc(Nc3cc(C(=O)NCC(F)F)c(Cl)c(F)c3F)c21 [Example 282, 2-chloro-N-(2,2-difluoroethyl)-5-((6-(3,3-dimethyl-1-((1s,3s)-3-methyl-3-(5-azaspiro[2.5]octan-5-yl)cyclobutyl)-2-oxo-2,3-dihydro-1H-pyrrolo[3,2-b]pyridin-6-yl)-3-isopropyl-3H-imidazo[4,5-c]pyridin-4-yl)amino)-3,4-difluorobenzamide]
10.15 | Cc1c(C(=O)NCC(F)F)cc(Nc2nc(-c3cc4c(nc3F)C(C)(C)C(=O)N4[C@H]3C[C@@](C)(N4CCCC5(CC5)C4)C3)cc3ncn(C(C)C)c23)c(F)c1F [Example 277, N-(2,2-difluoroethyl)-3,4-difluoro-5-((6-(5-fluoro-3,3-dimethyl-1-((1s,3s)-3-methyl-3-(5-azaspiro[2.5]octan-5-yl)cyclobutyl)-2-oxo-2,3-dihydro-1H-pyrrolo[3,2-b]pyridin-6-yl)-3-isopropyl-3H-imidazo[4,5-c]pyridin-4-yl)amino)-2-methylbenzamide]

Same assay, conditions: recombinant HPK1 kinase domain 0.15 nM, 10 μM ATP, 1 μM STK S1 peptide; geometric mean of multiple experiments

Compound | pIC50
Cc1cc(F)c(Nc2nc(-c3ccc4c(c3)N([C@H]3C[C@@H](N5CCCCC5)C3)C(=O)C4(C)C)cc3ncn(C(C)C)c23)cc1C(=O)NC(C)C [Example 176] | 9.70
Cc1ccc(Nc2nc(-c3ccc4c(c3)N([C@H]3C[C@@H](N5CCC[C@@H](O)C5)C3)C(=O)C4(C)C)cc3ncn(C4CC4)c23)cc1C(N)=O [Example 37] | 10.00
Cc1ccc(Nc2nc(-c3ccc4c(c3)N([C@H]3C[C@@H](N5CCCCC5)C3)C(=O)C43CCN(C4COC4)CC3)cc3ncn(C(C)C)c23)cc1C(=O)NC(C)C [Example 73] | 10.00
Cc1c(C(=O)NC2(C(F)F)CC2)cc(Nc2nc(-c3cnc4c(c3)N([C@H]3C[C@@H](N5C[C@H]6CC[C@@H]5C6)C3)C(=O)C4(C)C)cc3ncn(C(C)C)c23)c(F)c1F [Example 64] | 10.00
Cc1cc(F)c(Nc2nc(-c3ccc4c(c3)N([C@H]3C[C@@H](N5CCC[C@@H](F)C5)C3)C(=O)C43CCN(C4COC4)CC3)cc3ncn(C(C)C)c23)cc1C(=O)NC(C)C [Example 172] | 9.52
Cc1cc(F)c(Nc2nc(-c3ccc4c(c3)N([C@H]3C[C@@](C)(N5CCCCC5)C3)C(=O)C4(C)C)cc3ncn(C(C)C)c23)cc1C(=O)NC1(C(F)F)CC1 [Example 235, N-(1-(difluoromethyl)cyclopropyl)-5-((6-(3,3-dimethyl-1-((1s,3s)-3-methyl-3-(piperidin-1-yl)cyclobutyl)-2-oxoindolin-6-yl)-3-isopropyl-3H-imidazo[4,5-c]pyridin-4-yl)amino)-4-fluoro-2-methylbenzamide] | 10.00
CNC(=O)c1cc(Nc2nc(-c3ccc4c(c3)N([C@H]3C[C@@H](N5CC[C@@H](F)C5)C3)C(=O)C43CCN(C4COC4)CC3)cc3ncn(C(C)C)c23)c(F)cc1C [Example 71] | 10.00
CNC(=O)c1cc(Nc2nc(-c3ccc4c(c3)N([C@H]3C[C@@H](N5CCC[C@@H](F)C5)C3)C(=O)C43CCN(C(C)=O)CC3)cc3ncn(C(C)C)c23)ccc1C [Example 162] | 10.00
Cc1cc(F)c(Nc2nc(-c3cnc4c(c3)N([C@H]3C[C@@](C)(N5C6CCC5COC6)C3)C(=O)C4(C)C)cc3ncn(C(C)C)c23)cc1C(=O)NC1(C(F)F)CC1 [Example 212, 5-((6-(1-((1s,3s)-3-(3-Oxa-8-azabicyclo[3.2.1]octan-8-yl)-3-methylcyclobutyl)-3,3-dimethyl-2-oxo-2,3-dihydro-1H-pyrrolo[3,2-b]pyridin-6-yl)-3-isopropyl-3H-imidazo[4,5-c]pyridin-4-yl)amino)-N-(1-(difluoromethyl)cyclopropyl)-4-fluoro-2-methylbenzamide] | 9.52
Cc1ccc(Nc2nc(-c3ccc4c(c3)N([C@H]3C[C@@H](N5CCCCC5)C3)C(=O)C4(C)C)cc3ncn(C(C)C)c23)cc1C(=O)NC1(C(F)F)CC1 [Example 27] | 10.15

Second part, the molecule after the results:

pIC50 | Compound
10.30 | CC(C)NC(=O)c1cc(Nc2nc(-c3cnc4c(c3)N([C@H]3C[C@@](C)(N5CCC6CC6C5)C3)C(=O)C4(C)C)cc3ncn(C(C)C)c23)c(F)c(F)c1Cl (stereo partly drawn) [Example 254, 5-((6-(1-((1s,3s)-3-(3-azabicyclo[4.1.0]heptan-3-yl)-3-methylcyclobutyl)-3,3-dimethyl-2-oxo-2,3-dihydro-1H-pyrrolo[3,2-b]pyridin-6-yl)-3-isopropyl-3H-imidazo[4,5-c]pyridin-4-yl)amino)-2-chloro-3,4-difluoro-N-isopropylbenzamide]
10.00 | Cc1c(C(=O)NC2(C(F)F)CC2)cc(Nc2nc(-c3cnc4c(c3)N([C@H]3C[C@@](C)(N5CC6CCC(C6)C5)C3)C(=O)C4(C)C)cc3ncn(C(C)C)c23)c(F)c1F [Example 230, 5-((6-(1-((1s,3s)-3-(3-Azabicyclo[3.2.1]octan-3-yl)-3-methylcyclobutyl)-3,3-dimethyl-2-oxo-2,3-dihydro-1H-pyrrolo[3,2-b]pyridin-6-yl)-3-isopropyl-3H-imidazo[4,5-c]pyridin-4-yl)amino)-N-(1-(difluoromethyl)cyclopropyl)-3,4-difluoro-2-methylbenzamide]
8.96 | CC(=O)N1CC2(C1)C(=O)N([C@H]1C[C@@H](N3CCCCC3)C1)c1cc(-c3cc4ncn(C(C)C)c4c(Nc4cc(C(=O)NC(C)C)c(C)cc4F)n3)ccc12 [Example 179]
9.70 | CC[C@H](C)n1cnc2cc(-c3ccc4c(c3)N([C@H]3C[C@@H](N5CCC6(C5)CC6(F)F)C3)C(=O)C43CCN(C(C)=O)CC3)nc(Nc3ccc(C)c(C(=O)NC)c3)c21 (stereo partly drawn) [Example 158]
10.00 | CNC(=O)c1cc(Nc2nc(-c3ccc4c(c3)N([C@H]3C[C@@H](N5CCCCC5)C3)C(=O)C43CCN(S(=O)(=O)C4CC4)CC3)cc3ncn(C4CC4)c23)ccc1C [Example 167]
9.40 | Cc1c(C(=O)NC2(C(F)F)CC2)cc(Nc2nc(-c3cnc4c(c3)N([C@H]3C[C@@](C)(N5CCOC(C)(C)C5)C3)C(=O)C4(C)C)cc3ncn(C(C)C)c23)c(F)c1F [Example 188, N-(1-(Difluoromethyl)cyclopropyl)-5-((6-(1-((1s,3s)-3-(2,2-dimethylmorpholino)-3-methylcyclobutyl)-3,3-dimethyl-2-oxo-2,3-dihydro-1H-pyrrolo[3,2-b]pyridin-6-yl)-3-isopropyl-3H-imidazo[4,5-c]pyridin-4-yl)amino)-3,4-difluoro-2-methylbenzamide]
10.05 | Cc1c(C(=O)NC2(C(F)F)CC2)cc(Nc2nc(-c3cnc4c(c3)N([C@H]3C[C@@](C)(N5CCCOCC5)C3)C(=O)C4(C)C)cc3ncn(C(C)C)c23)c(F)c1F [Example 208, N-(1-(Difluoromethyl)cyclopropyl)-5-((6-(3,3-dimethyl-1-((1s,3s)-3-methyl-3-(1,4-oxazepan-4-yl)cyclobutyl)-2-oxo-2,3-dihydro-1H-pyrrolo[3,2-b]pyridin-6-yl)-3-isopropyl-3H-imidazo[4,5-c]pyridin-4-yl)amino)-3,4-difluoro-2-methylbenzamide]
9.70 | COCCNC(=O)c1cc(Nc2nc(-c3ccc4c(c3)N([C@H]3C[C@@H](N5CCCCC5)C3)C(=O)C43CCN(C(C)=O)CC3)cc3ncn(C(C)C)c23)ccc1C [Example 131]
10.00 | COCCNC(=O)c1cc(Nc2nc(-c3ccc4c(c3)N([C@H]3C[C@@H](N5CCCCC5)C3)C(=O)C4(C)C)cc3ncn(C(C)C)c23)ccc1C [Example 137]
10.22 | CNC(=O)c1cc(Nc2nc(-c3ccc4c(c3)N([C@H]3C[C@@H](N5CCCCC5)C3)C(=O)C43CCN(C(=O)C45CC(C4)C5)CC3)cc3ncn(C4CC4)c23)ccc1C [Example 156]
10.10 | CC(C)n1cnc2cc(-c3cnc4c(c3)N([C@H]3C[C@@](C)(N5CCCCC5)C3)C(=O)C4(C)C)nc(Nc3cc(C(=O)NC4(C(F)F)CC4)c(Cl)c(F)c3F)c21 [Example 207, 2-Chloro-N-(1-(difluoromethyl)cyclopropyl)-5-((6-(3,3-dimethyl-1-((1s,3s)-3-methyl-3-(piperidin-1-yl)cyclobutyl)-2-oxo-2,3-dihydro-1H-pyrrolo[3,2-b]pyridin-6-yl)-3-isopropyl-3H-imidazo[4,5-c]pyridin-4-yl)amino)-3,4-difluorobenzamide]
10.00 | CNC(=O)c1cc(Nc2nc(-c3ccc4c(c3)N([C@H]3C[C@@H](N5CC6CCC(C5)O6)C3)C(=O)C4(C)C)cc3ncn(C(C)C)c23)c(F)cc1C [Example 10]
10.00 | CC(C)n1cnc2cc(-c3cnc4c(c3)N([C@H]3C[C@@](C)(N5CCCCC5)C3)C(=O)C4(C)C)nc(Nc3cc(C(=O)NC4(C(F)F)CC4)c(Cl)cc3F)c21 [Example 202, 2-Chloro-N-(1-(difluoromethyl)cyclopropyl)-5-((6-(3,3-dimethyl-1-((1s,3s)-3-methyl-3-(piperidin-1-yl)cyclobutyl)-2-oxo-2,3-dihydro-1H-pyrrolo[3,2-b]pyridin-6-yl)-3-isopropyl-3H-imidazo[4,5-c]pyridin-4-yl)amino)-4-fluorobenzamide]
9.52 | Cc1c(C(=O)NC2(C(F)F)CC2)cc(Nc2nc(-c3cnc4c(c3)N([C@H]3C[C@@](C)(N5CC6CCC(C5)O6)C3)C(=O)C4(C)C)cc3ncn(C(C)C)c23)c(F)c1F [Example 228, 5-((6-(1-((1s,3s)-3-(8-Oxa-3-azabicyclo[3.2.1]octan-3-yl)-3-methylcyclobutyl)-3,3-dimethyl-2-oxo-2,3-dihydro-1H-pyrrolo[3,2-b]pyridin-6-yl)-3-isopropyl-3H-imidazo[4,5-c]pyridin-4-yl)amino)-N-(1-(difluoromethyl)cyclopropyl)-3,4-difluoro-2-methylbenzamide]
